Experimental data from patent publication US8653087B2, “Pyrido [5, 4-D] pyrimidines as cell proliferation inhibitors” (Boehringer Ingelheim International GmbH, priority 2008, dated 2014).

Target: B-Raf (V600E)-kinase (Homo sapiens (Human), UniProt P15056, V600E)
Assay: Kinase test B-RAF (V600E)
Type: biochemical
Settings: B-RAF (V600E) kinase test, 250 μM ATP
In short: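 B-Raf (V600E) (0.5 ng) preincubated with compound 24 h at RT (5% DMSO), then reacted 60 min at RT with 250 μM ATP and biotinylated MEK1 as substrate. Phospho-MEK (Ser217/221) captured on streptavidin and detected by europium time-resolved fluorescence; IC50 from dose-response curves.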

B-Raf (V600E)-kinase, sequence (P15056 whole entry V600E): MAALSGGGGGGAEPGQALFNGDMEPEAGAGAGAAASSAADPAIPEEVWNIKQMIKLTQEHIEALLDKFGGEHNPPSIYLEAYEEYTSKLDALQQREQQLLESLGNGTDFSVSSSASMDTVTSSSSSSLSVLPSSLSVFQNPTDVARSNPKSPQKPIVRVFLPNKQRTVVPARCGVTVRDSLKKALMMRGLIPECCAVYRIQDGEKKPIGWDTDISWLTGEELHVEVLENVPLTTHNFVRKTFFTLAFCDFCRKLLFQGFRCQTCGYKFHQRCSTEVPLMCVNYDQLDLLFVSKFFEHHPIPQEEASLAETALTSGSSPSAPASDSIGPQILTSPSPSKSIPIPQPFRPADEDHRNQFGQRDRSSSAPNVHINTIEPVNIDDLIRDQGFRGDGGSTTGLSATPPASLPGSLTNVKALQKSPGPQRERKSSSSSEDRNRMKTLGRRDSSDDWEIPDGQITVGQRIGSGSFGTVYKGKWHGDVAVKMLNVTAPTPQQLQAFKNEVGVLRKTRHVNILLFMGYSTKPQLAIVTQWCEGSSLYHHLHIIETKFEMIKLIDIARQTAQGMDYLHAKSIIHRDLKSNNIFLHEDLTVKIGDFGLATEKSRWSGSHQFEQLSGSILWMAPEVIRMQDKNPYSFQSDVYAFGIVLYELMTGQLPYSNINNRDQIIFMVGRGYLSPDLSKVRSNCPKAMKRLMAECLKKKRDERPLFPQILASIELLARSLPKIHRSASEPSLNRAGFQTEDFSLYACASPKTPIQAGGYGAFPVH

| SMILES | IC50 [nM] |
| --- | --- |
| Cc1ccc(C(=O)Nc2cc(C(C)(C)C)on2)cc1Nc1ncnc2cnc(N3CCN(CCCN4CCCC4)CC3)nc12 [III-481] | 1 |
| Cc1ccc(C(=O)Nc2cc(C(C)(C)C)on2)cc1Nc1ncnc2cnc(N3CCN(CC4CCOC4)CC3)nc12 (centres unmarked) [III-482] | 4 |
| Cc1ccc(C(=O)Nc2cc(C(C)(C)C)on2)cc1Nc1ncnc2cnc(N3CCN(CC4CCCN(C)C4)CC3)nc12 (centres unmarked) [III-483] | 1 |
| Cc1ccc(C(=O)Nc2cc(C(C)(C)C)on2)cc1Nc1ncnc2cnc(N3CCN4CCCC4C3)nc12 (centres unmarked) [III-484] | 3 |
| Cc1ccc(C(=O)Nc2cc(C(C)(C)C)on2)cc1Nc1ncnc2cnc(N3CCC(N4CCCCC4)CC3)nc12 [III-485] | 3 |
| Cc1ccc(C(=O)Nc2cc(C(C)(C)C)on2)cc1Nc1ncnc2cnc(N3CCN(C4CCN(C)CC4)CC3)nc12 [III-486] | 4 |
| Cc1ccc(C(=O)Nc2cc(C(C)(C)C)on2)cc1Nc1ncnc2cnc(NCC(C)C)nc12 [III-487] | 13 |
| Cc1ccc(C(=O)Nc2cc(C(C)(C)C)on2)cc1Nc1ncnc2cnc(N3CCC(N4C[C@@H](C)O[C@@H](C)C4)CC3)nc12 [III-488] | 6 |
| Cc1ccc(C(=O)Nc2cc(C(C)(C)C)on2)cc1Nc1ncnc2cnc(N3CCC(N4CCOCC4)CC3)nc12 [III-489] | 1 |
| Cc1ccc(C(=O)Nc2cc(C(C)(C)C)on2)cc1Nc1ncnc2cnc(N3CCC(N4CCCC4)CC3)nc12 [III-490] | 2 |
| CCN1CCN(c2ncc3ncnc(Nc4cc(C(=O)Nc5cc(C(C)(C)C)on5)ccc4C)c3n2)CC1 [III-491] | 2 |
| Cc1ccc(C(=O)Nc2cc(C(C)(C)C)on2)cc1Nc1ncnc2cnc(N3CCN(C(C)C)CC3)nc12 [III-492] | 2 |
| Cc1ccc(C(=O)Nc2cc(C(C)(C)C)on2)cc1Nc1ncnc2cnc(N3CCN(C4CC4)CC3)nc12 [III-493] | 5 |
| Cc1ccc(C(=O)Nc2cc(C(C)(C)C)on2)cc1Nc1ncnc2cnc(N3CCN(CC(C)C)CC3)nc12 [III-494] | 4 |
| Cc1ccc(C(=O)Nc2cc(C(C)(C)C)on2)cc1Nc1ncnc2cnc(N3CCC(N(C)C)CC3)nc12 [III-495] | 2 |
| Cc1ccc(C(=O)Nc2cc(C(C)(C)C)on2)cc1Nc1ncnc2cnc(N3C[C@@H](C)N[C@@H](C)C3)nc12 [III-496] | 2 |
| Cc1ccc(C(=O)Nc2cc(C(C)(C)C)on2)cc1Nc1ncnc2cnc(N3C[C@H]4C[C@@H]3CN4C)nc12 [III-497] | 2 |
| Cc1ccc(C(=O)Nc2cc(C(C)(C)C)nn2C)cc1Nc1ncnc2cnc(NCC(C)C)nc12 [III-499] | 3 |
| Cc1ccc(C(=O)Nc2cccc(C(C)(C)C)c2)cc1Nc1ncnc2cnc(NCC(C)C)nc12 [III-500] | < 1 |
| COCCN1CCN(c2ncc3ncnc(Nc4cc(C(=O)Nc5cc(N6CCN(C)CC6)c(F)c(C(F)(F)F)c5)ccc4C)c3n2)CC1 [III-501] | 25 |
| COCCN1CCN(c2ncc3ncnc(Nc4cc(C(=O)Nc5cc(-n6cnc(C)c6)cc(C(F)(F)F)c5)ccc4C)c3n2)CC1 [III-502] | 8 |
| Cc1ccc(C(=O)Nc2cc(N3CCN(C)CC3)c(F)c(C(F)(F)F)c2)cc1Nc1ncnc2cnc(N3CCOCC3)nc12 [III-503] | 1 |
| Cc1ccc(C(=O)Nc2cc(C(C)(C)C)on2)cc1Nc1ncnc2cnc(N3CCN(C)CC3)nc12 [III-504] | 2 |

| SMILES | IC50 [nM] |
| --- | --- |
| COCCN1CCN(c2ncc3ncnc(Nc4cc(C(=O)Nc5cc(C(C)(C)C)cc(NS(C)(=O)=O)c5OC)ccc4C)c3n2)CC1 [III-505] | 49 |
| Cc1ccc(C(=O)Nc2cc(N3CCN(C)CC3)c(F)c(C(F)(F)F)c2)cc1Nc1ncnc2cnc(NC3CCOC3)nc12 (centres unmarked) [III-506] | 4 |
| Cc1cn(-c2cc(NC(=O)c3ccc(C)c(Nc4ncnc5cnc(NC6CCOC6)nc45)c3)cc(C(F)(F)F)c2)cn1 (centres unmarked) [III-507] | 1 |
| Cc1ccc(C(=O)Nc2cc(C(C)(C)C)n[nH]2)cc1Nc1ncnc2cnc(N3CC[C@H](F)C3)nc12 [III-508] | 3 |
| Cc1ccc(C(=O)Nc2cc(N3CCN(C)CC3)c(F)c(C(F)(F)F)c2)cc1Nc1ncnc2cnc(N3CCN(CC4CCN(C)CC4)CC3)nc12 [III-509] | 5 |
| Cc1ccc(C(=O)Nc2cc(C(F)(F)F)ccn2)cc1Nc1ncnc2cnc(N3CCN(CC4CCN(C)CC4)CC3)nc12 [III-510] | < 1 |
| Cc1ccc(C(=O)Nc2cc(N3CCN(C)CC3)c(F)c(C(F)(F)F)c2)cc1Nc1ncnc2cnc(N3CC[C@H](F)C3)nc12 [III-511] | 4 |
| Cc1ccc(C(=O)Nc2cc(C(C)(C)C)n[nH]2)cc1Nc1ncnc2cnc(NCc3ccccc3)nc12 [III-512] | 2 |
| Cc1ccc(C(=O)Nc2cc(C(C)(C)C)nn2C)cc1Nc1ncnc2cnc(N3CCOCC3)nc12 [III-513] | 1 |
| Cc1ccc(C(=O)Nc2cc(N3CCCN(C)CC3)cc(C(F)(F)F)c2)cc1Nc1ncnc2cnc(N(C)CCF)nc12 [III-514] | 1 |
| Cc1ccc(C(=O)Nc2cc(C(C)(C)C)n[nH]2)cc1Nc1ncnc2cnc(N3CCOCC3)nc12 [III-515] | < 1 |
| Cc1ccc(C(=O)Nc2cc(C(C)(C)C)on2)cc1Nc1ncnc2cnc(N3CCOCC3)nc12 [III-516] | < 1 |
| COCCN1CCN(c2ncc3ncnc(Nc4cc(C(=O)Nc5cc(C(C)(C)C)on5)ccc4C)c3n2)CC1 [III-517] | 3 |
| Cc1ccc(C(=O)Nc2cc(N3CCN(C)CC3)cc(C(F)(F)F)c2)cc1Nc1ncnc2cnc(N(C)CCF)nc12 [III-518] | 2 |
| Cc1ccc(C(=O)Nc2cc(C(F)(F)F)ccn2)cc1Nc1ncnc2cnc(NCC(C)C)nc12 [III-519] | < 1 |
| Cc1ccc(C(=O)Nc2cccc(C(C)(C)C#N)c2)cc1Nc1ncnc2cnc(NCC(C)C)nc12 [III-520] | 2 |
| Cc1ccc(C(=O)Nc2cc(C(C)(C)C)on2)cc1Nc1ncnc2cnc(NCc3ccccc3)nc12 [III-521] | 2 |
| Cc1ccc(C(=O)Nc2cc(C(F)(F)F)ccn2)cc1Nc1ncnc2cnc(NCc3ccccc3)nc12 [III-522] | 3 |
| Cc1ccc(C(=O)Nc2cc(OCCN3CCCC3)cc(C(F)(F)F)c2)cc1Nc1ncnc2cnc(N3CCOCC3)nc12 [III-523] | 1 |
| Cc1ccc(C(=O)Nc2cc(N3C[C@@H](C)N[C@@H](C)C3)cc(C(F)(F)F)c2)cc1Nc1ncnc2cnc(N3CCOCC3)nc12 [III-524] | 3 |
| Cc1ccc(C(=O)Nc2cc(N3CCOCC3)cc(C(F)(F)F)c2)cc1Nc1ncnc2cnc(N3CCOCC3)nc12 [III-525] | 3 |
| Cc1ccc(C(=O)Nc2cc(N3CCN(CCO)CC3)cc(C(F)(F)F)c2)cc1Nc1ncnc2cnc(N3CCOCC3)nc12 [III-526] | 4 |
| Cc1ccc(C(=O)Nc2cc(N3CCN[C@H](C)C3)cc(C(F)(F)F)c2)cc1Nc1ncnc2cnc(N3CCOCC3)nc12 [III-527] | < 1 |

| SMILES | IC50 [nM] |
| --- | --- |
| Cc1ccc(C(=O)Nc2cc(CN3CCCC3)c(Cl)c(C(F)(F)F)c2)cc1Nc1ncnc2cnc(N3CCOCC3)nc12 [III-528] | 2 |
| Cc1ccc(C(=O)Nc2cc(OCCN3CCOCC3)cc(C(F)(F)F)c2)cc1Nc1ncnc2cnc(N3CCOCC3)nc12 [III-529] | 3 |
| Cc1ccc(C(=O)Nc2cc(-n3ccnc3)cc(C(F)(F)F)c2)cc1Nc1ncnc2cnc(N3CCOCC3)nc12 [III-530] | 582 |
| COCCN1CCN(c2ncc3ncnc(Nc4cc(C(=O)Nc5cc(C(F)(F)F)ccc5C#N)ccc4C)c3n2)CC1 [III-531] | 13 |
| COCCN1CCN(c2ncc3ncnc(Nc4cc(C(=O)Nc5ccc(C#N)c(C(F)(F)F)c5)ccc4C)c3n2)CC1 [III-532] | 2 |
| COCCN1CCN(c2ncc3ncnc(Nc4cc(C(=O)Nc5cc(C(F)(F)F)ccc5Cl)ccc4C)c3n2)CC1 [III-533] | 6 |
| COCCN1CCN(c2ncc3ncnc(Nc4cc(C(=O)Nc5cc(C(F)(F)F)ccc5N5CCOCC5)ccc4C)c3n2)CC1 [III-534] | 106 |
| COCCN1CCN(c2ncc3ncnc(Nc4cc(C(=O)Nc5cc(OC)cc(C(F)(F)F)c5)ccc4C)c3n2)CC1 [III-535] | 4 |
| COCCN1CCN(c2ncc3ncnc(Nc4cc(C(=O)Nc5ccc(F)c(C(F)(F)F)c5)ccc4C)c3n2)CC1 [III-536] | 1 |
| COCCN1CCN(c2ncc3ncnc(Nc4cc(C(=O)Nc5cc(C(F)(F)F)ccc5-n5ccnn5)ccc4C)c3n2)CC1 [III-537] | 12 |
| COCCN1CCN(c2ncc3ncnc(Nc4cc(C(=O)Nc5cc(C(F)(F)F)ccc5-n5cccn5)ccc4C)c3n2)CC1 [III-538] | 10 |
| COc1c(CN2CCCC2)cc(C(F)(F)F)cc1NC(=O)c1ccc(C)c(Nc2ncnc3cnc(N4CCOCC4)nc23)c1 [III-539] | 2 |
| COc1c(CNC(C)C)cc(C(F)(F)F)cc1NC(=O)c1ccc(C)c(Nc2ncnc3cnc(N4CCOCC4)nc23)c1 [III-540] | 5 |
| COc1c(CN2CCCC2)cc(C(F)(F)F)cc1NC(=O)c1ccc(C)c(Nc2ncnc3cnc(N4CC[C@H](F)C4)nc23)c1 [III-541] | 15 |
| COc1c(CNC(C)C)cc(C(F)(F)F)cc1NC(=O)c1ccc(C)c(Nc2ncnc3cnc(N4CC[C@H](F)C4)nc23)c1 [III-542] | 12 |
| COc1ccc(NC(=O)c2ccc(C)c(Nc3ncnc4cnc(N(C)CC5CCCO5)nc34)c2)cc1C(F)(F)F (centres unmarked) [III-543] | 3 |
| COc1ccc(NC(=O)c2ccc(C)c(Nc3ncnc4cnc(NCC5CCCCO5)nc34)c2)cc1C(F)(F)F (centres unmarked) [III-544] | 1 |
| COC[C@@H]1CCCN1c1ncc2ncnc(Nc3cc(C(=O)Nc4ccc(OC)c(C(F)(F)F)c4)ccc3C)c2n1 [III-545] | 2 |
| COc1ccc(NC(=O)c2ccc(C)c(Nc3ncnc4cnc(N5CCC[C@H]5CO)nc34)c2)cc1C(F)(F)F [III-546] | 4 |
| COc1ccc(NC(=O)c2ccc(C)c(Nc3ncnc4cnc(NCC(C)C)nc34)c2)cc1C(F)(F)F [III-547] | < 1 |
| COc1ccc(NC(=O)c2ccc(C)c(Nc3ncnc4cnc(N(C)C5CCOC5)nc34)c2)cc1C(F)(F)F (centres unmarked) [III-548] | 3 |
| COc1ccc(NC(=O)c2ccc(C)c(Nc3ncnc4cnc(-n5cnc(C)c5)nc34)c2)cc1C(F)(F)F [III-549] | 8 |
